Patent US12679878B2, “CRF2 receptor agonists and their use in therapy” (SANOFI, priority 2020, dated 2026)
Read-outs that look alike come from different tables or passages of the source. Starred links: 1 amine or outer side, 2 acyl side, 3 side chain; linkers in the order of their positions; H or OH if unused. Non-standard residues stand in square brackets, D forms with d. Residues, ends and D or L forms follow the SMILES beside them. Groups on a side chain read outwards from the residue. *: point of attachment. C18 diacid = O=C(O)CCCCCCCCCCCCCCCCC(=O)*; γGlu = O=C(O)[C@H](CCC(=O)[*:2])N[*:1]; Palmitoyl = CCCCCCCCCCCCCCCC(=O)*; AEEA = NCCOCCOCC(=O)O; Aib = CC(C)(N)C(=O)O

Tests used:
[1] = Physical stability, Thioflavin T fibrillation assay (Example 14); type: physicochemical; settings: 3 mg/ml, 37° C. shaking
In short: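 Fibrillation tendency was judged from lag time and rise in Thioflavin T fluorescence, measured every 20 minutes over eight replicates per sample. Peptides at 3 mg/ml final were held at 37° C under cycles of 10 s shaking (960 rpm) and 50 s rest.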

human CRF2α receptor = target: T1, human CRF2α receptor (Homo sapiens, UniProt Q13324); assay: cAMP agonism at human CRF2 α receptor in TeloHEAC cells (Example 7); type: cell-based; settings: cAMP HTRF, TeloHEAC cells stably expressing human CRF2 α
T1 construct: expressed in transfected cells; host or cells: TeloHEAC
T1 sequence (Q13324 1-411): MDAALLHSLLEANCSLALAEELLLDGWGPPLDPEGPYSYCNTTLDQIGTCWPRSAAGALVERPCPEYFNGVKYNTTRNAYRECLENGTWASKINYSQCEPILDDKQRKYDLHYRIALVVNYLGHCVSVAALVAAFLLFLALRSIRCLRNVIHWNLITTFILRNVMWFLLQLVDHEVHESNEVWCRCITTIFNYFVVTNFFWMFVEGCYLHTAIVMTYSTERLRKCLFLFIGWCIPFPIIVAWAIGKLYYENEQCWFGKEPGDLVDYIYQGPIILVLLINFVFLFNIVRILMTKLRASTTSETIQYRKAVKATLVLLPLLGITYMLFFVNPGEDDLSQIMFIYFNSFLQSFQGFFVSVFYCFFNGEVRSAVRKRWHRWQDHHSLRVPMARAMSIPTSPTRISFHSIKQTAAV
In short: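 HTRF ratio 665/620 nm, read 1 h after lysis reagents, reports cAMP. Cells: thawed stocks, 2000/well, 30 min RT with compound in HBSS, 20 mM HEPES, 0 or 0.1% HSA, 2 mM IBMX. Activity normalised to UCN2 1000 nM = 100%; EC50 from half-maximal activation.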

[2] = Solubility in buffer systems by UPLC-UV (Example 13); type: physicochemical
In short: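 Quantitation used UV peak area from UPLC of the 1:10-diluted supernatant, set against a reference-compound standard curve with extinction coefficients adjusted for amino acid sequence.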

CRF1R receptor = target: T2, CRF1R receptor (Homo sapiens, UniProt P34998); assay: cAMP activity at anti-target CRF1R, CRF1R-overexpression CHO cell line (Example 9); type: cell-based
T2 construct: host or cells: CHO-K1 clone 2
T2 sequence (P34998 24-415): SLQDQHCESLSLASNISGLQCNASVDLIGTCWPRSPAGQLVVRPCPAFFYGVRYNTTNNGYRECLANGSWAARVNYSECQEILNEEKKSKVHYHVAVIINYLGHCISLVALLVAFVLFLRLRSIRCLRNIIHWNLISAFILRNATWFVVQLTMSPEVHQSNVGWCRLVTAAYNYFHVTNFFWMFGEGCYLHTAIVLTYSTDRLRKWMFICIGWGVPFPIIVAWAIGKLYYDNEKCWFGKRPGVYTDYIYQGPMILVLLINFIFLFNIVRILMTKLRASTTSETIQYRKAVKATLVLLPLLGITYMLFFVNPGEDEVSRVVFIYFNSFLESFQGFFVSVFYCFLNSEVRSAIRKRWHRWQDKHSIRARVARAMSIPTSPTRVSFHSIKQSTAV
In short: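 Using thawed CRF1R-overexpressing CHO cells at 2000 per well, compound is applied for 30 min at RT in HBSS/HEPES buffer with IBMX. Cellular cAMP content is determined via HTRF, and percent activity is calculated against 1000 nM UCN2 defined as 100%.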

[3] = Chemical stability, purity loss by UPLC-UV after 28 days at 40° C. vs 5° C., pH 4.5 acetate buffer (Example 12); type: physicochemical; settings: 28 days 40° C. vs 5° C.; pH 4.5, 20 mM acetate buffer; 300 μM
In short: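 300 μM compound (purity-corrected) in 20 mM acetate buffer, pH 4.5, stored 28 days at 5 and 40° C. Purity by UPLC-UV as compound peak area over total peak area. Value is the purity difference between 5° C. and 40° C. samples, relative to the 5° C. purity, in percent.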

rat CRF2R α receptor = assay: cAMP agonism at rat CRF2R α receptor in A7R5 rat aortic smooth muscle cells (Example 8); type: cell-based; settings: cAMP HTRF, A7R5 rat aortic smooth muscle cell line, 0% HSA
In short: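 Potency (EC50) is the concentration reaching half-maximal activation, with responses scaled so that 1000 nM urocortin 2 equals 100%. Intracellular cAMP was quantified by homogeneous time-resolved fluorescence at 665/620 nm, 1 h after lysis-buffer reagents. Compound stimulation lasted 30 min at room temperature on 2000 IBMX-treated (2 mM) cells per well in HEPES-buffered HBSS.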

[4] = Physical stability, dynamic light scattering assay (Example 15); type: physicochemical; settings: Buffer D (20 mM phosphate, pH 7.4)
In short: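 DLS at 837 nm, 150° angle, +25° C; Rh, scattering intensity and mass contribution measured at 0 weeks and after 4 weeks at 40° C. Rh and D compared at 1, 5 and 10 mg/ml as kD surrogate; separate measurements at 300 μM, purity-corrected.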

[5] = Buffer A: 100 mM acetate buffer, pH 4.5
[6] = Buffer B: 100 mM acetate buffer, pH 4.5, 2.7 mg/ml m-cresol
[7] = 0% HSA, read-out: EC50 [nM], 0% HSA
[8] = 0.1% HSA, read-out: EC50 [nM], 0.1% HSA
[9] = pH 4.5, Solubility in Buffer B [mg/ml]

Row | SMILES | Increase in FI (fluorescence intensity) [1, 5] | Lag time [1, 5] [h] | Increase in FI (fluorescence intensity) [1, 6] | Lag time [1, 6] [h] | EC50 (human CRF2α receptor; [7]) [nM] | EC50 (human CRF2α receptor; [8]) [nM] | solubility at 1 h [2, 9] [µg/mL] | solubility at 1 h ([2]; pH 7.4, Solubility in Buffer C [mg/ml]) [µg/mL] | Emax (CRF1R receptor; CRF1R-overexpression CHO cell line, read-out: Emax (%)) [%] | Relative purity loss [%] [3] [%] | EC50 (rat CRF2R α receptor) [nM] | solubility at 1 h ([2]; Buffer B: 100 mM acetate buffer, pH 4.5, 2.7 mg/ml m-cresol, target 10 mg/ml, read-out: Solubility in Buffer B) [µg/mL] | solubility at 1 h ([2]; Buffer C: 100 mM phosphate buffer, pH 7.4, target 10 mg/ml, read-out: Solubility in Buffer C) [µg/mL] | Emax (CRF1R receptor; CHO) [%] | Apparent Rh [nm] 0 weeks ([4]; 0 weeks) [nm] | Scattering Intensity (I) [%] 0 weeks ([4]; 0 weeks) [%] | Apparent Rh [nm] 4 weeks ([4]; 4 weeks at 40° C.) [nm] | Scattering Intensity (I) [%] 4 weeks ([4]; 4 weeks at 40° C.) [%]
1 | CCCCCCCCCCCCCCCC(=O)N[C@@H](CCC(=O)NCCCC[C@H](NC(=O)[C@H](CC(C)C)NC(=O)CNC(=O)[C@@H](NC(=O)[C@@H]1CCCN1C(=O)[C@@H](NC(=O)[C@H](CC(=O)O)NC(=O)[C@H](CC(C)C)NC(=O)[C@H](CO)NC(=O)[C@H](CC(C)C)NC(=O)[C@@H](NC(=O)[C@@H](N)[C@@H](C)CC)C(C)C)C(C)C)[C@@H](C)CC)C(=O)N[C@@H](CCC(N)=O)C(=O)N[C@@H](CCCCN)C(=O)N[C@@H](CC(C)C)C(=O)N[C@@H](CC(C)C)C(=O)N[C@@H](CCCCN)C(=O)N[C@@H](CCC(N)=O)C(=O)N[C@@H](CCC(N)=O)C(=O)N[C@@H](CCCNC(=N)N)C(=O)N[C@@H](CCC(N)=O)C(=O)N[C@@H](CCCNC(=N)N)C(=O)N[C@@H](CCCCN)C(=O)N[C@@H](CCC(=O)O)C(=O)N[C@@H](CCCNC(=N)N)C(=O)N[C@@H](CCC(N)=O)C(=O)N[C@@H](CCC(N)=O)C(=O)N[C@@H](C)C(=O)N[C@@H](CCC(=O)O)C(=O)N[C@@H](CCCCN)C(=O)N[C@@H](CC(N)=O)C(=O)N[C@@H](C)C(=O)N[C@@H](CCCNC(=N)N)C(=O)N[C@H](C(=O)N[C@@H](CC(C)C)C(=O)N[C@@H](C)C(=O)N[C@@H](CCCNC(=N)N)C(=O)N[C@H](C(N)=O)C(C)C)[C@@H](C)CC)C(=O)O [compound 6] (H-IVLSLDVPIGLK([γGlu-Palmitoyl])QKLLKQQRQRKERQQAEKNARILARV-NH2; N-terminus assumed) | No | >45 | No | >45 | 0.16 | 0.18 | > 8500 | > 8100 | 47.2 | 1.9 | – | – | – | – | – | – | – | –
2 | CC[C@H](C)[C@H](N)C(=O)N[C@H](C(=O)N[C@@H](CC(C)C)C(=O)N[C@@H](CO)C(=O)N[C@@H](CC(C)C)C(=O)N[C@@H](CC(=O)O)C(=O)N[C@H](C(=O)N1CCC[C@H]1C(=O)N[C@H](C(=O)N[C@@H](CCCCN)C(=O)N[C@@H](CC(C)C)C(=O)N[C@@H](CCCCNC(=O)COCCOCCNC(=O)COCCOCCNC(=O)CC[C@H](NC(=O)CCCCCCCCCCCCCCCCC(=O)O)C(=O)O)C(=O)N[C@@H](CCC(N)=O)C(=O)N[C@H](C(=O)N[C@@H](CC(C)C)C(=O)N[C@@H](CC(C)C)C(=O)N[C@@H](CCCCN)C(=O)N[C@@H](CCC(N)=O)C(=O)N[C@@H](CCC(=O)O)C(=O)N[C@@H](CCCNC(=N)N)C(=O)N[C@@H](CCC(N)=O)C(=O)N[C@@H](CCCCN)C(=O)N[C@@H](CCCCN)C(=O)N[C@@H](CCC(N)=O)C(=O)N[C@@H](CCCNC(=N)N)C(=O)N[C@@H](CCC(N)=O)C(=O)N[C@@H](CCCCN)C(=O)N[C@@H](C)C(=O)N[C@@H](CCC(=O)O)C(=O)N[C@H](C(=O)N[C@@H](CC(N)=O)C(=O)N[C@@H](CCCCN)C(=O)N[C@@H](CCC(N)=O)C(=O)N[C@H](C(=O)N[C@@H](CC(C)C)C(=O)N[C@@H](C)C(=O)N[C@@H](CCC(N)=O)C(=O)N[C@H](C(N)=O)C(C)C)[C@@H](C)CC)[C@@H](C)O)[C@@H](C)CC)[C@@H](C)CC)C(C)C)C(C)C [compound 77] (H-IVLSLDVPIKLK([AEEA-AEEA-γGlu-C18 diacid])QILLKQERQKKQRQKAETNKQILAQV-NH2) | – | – | Yes | 23.0 to 29.7 | 0.33 | – | – | – | – | 3.60 | 3.26 | > 8000 | > 9000 | 1.56 | – | – | – | –
3 | CC[C@H](C)[C@H](N)C(=O)N[C@H](C(=O)N[C@@H](CC(C)C)C(=O)N[C@@H](CO)C(=O)N[C@@H](CC(C)C)C(=O)N[C@@H](CC(=O)O)C(=O)N[C@@H](C(=O)N1CCC[C@H]1C(=O)N[C@H](C(=O)N[C@@H](CCCCN)C(=O)N[C@@H](CC(C)C)C(=O)N[C@@H](CCCCNC(=O)COCCOCCNC(=O)COCCOCCNC(=O)CC[C@H](NC(=O)CCCCCCCCCCCCCCCCC(=O)O)C(=O)O)C(=O)N[C@@H](CCC(N)=O)C(=O)N[C@H](C(=O)N[C@@H](CC(C)C)C(=O)N[C@@H](CC(C)C)C(=O)N[C@@H](CCCCN)C(=O)N[C@@H](CCC(N)=O)C(=O)N[C@@H](C)C(=O)N[C@@H](CCCNC(=N)N)C(=O)N[C@@H](CCC(N)=O)C(=O)N[C@@H](CCCCN)C(=O)NC(C)(C)C(=O)N[C@@H](CCC(N)=O)C(=O)N[C@@H](CCCNC(=N)N)C(=O)N[C@@H](C)C(=O)N[C@@H](CCC(N)=O)C(=O)N[C@@H](C)C(=O)N[C@@H](CCC(=O)O)C(=O)N[C@@H](CCCCN)C(=O)N[C@@H](CC(N)=O)C(=O)N[C@@H](CCCCN)C(=O)N[C@@H](CCCNC(=N)N)C(=O)N[C@H](C(=O)N[C@@H](CC(C)C)C(=O)N[C@@H](CCC(=O)O)C(=O)N[C@@H](CCCNC(=N)N)C(=O)N[C@H](C(N)=O)C(C)C)[C@@H](C)CC)[C@@H](C)CC)[C@@H](C)CC)C(C)C)C(C)C [compound 141] (H-IVLSLD[dV]PIKLK([AEEA-AEEA-γGlu-C18 diacid])QILLKQARQK[Aib]QRAQAEKNKRILERV-NH2) | No | >45 | No | >45 | 0.03 | 0.97 | > 8300 | – | – | 2.90 | 0.05 | – | – | – | 2.19 ± 0.18 | 100 ± 1 | 2.34 ± 0.22 | 98 ± 2
